According to US4443436A, “C-20-Modified macrolide derivatives of the macrolide antibiotics tylosin, desmycosin, macrocin, and lactenocin” (Eli Lilly and Company, priority 1982, dated 1984):
In brackets after ≈: the same amount, converted by molar mass. Like-named read-outs stand apart in the source and are kept apart here.

Columns and labels:
[1] = tested on: Staphylococcus aureus X1.1; assay: MIC, standard agar-dilution assay, Staphylococcus aureus X1.1; format: cell-based
[2] = tested on: Staphylococcus aureus V41; assay: MIC, standard agar-dilution assay, Staphylococcus aureus V41; format: cell-based
[3] = tested on: Staphylococcus aureus X400; assay: MIC, standard agar-dilution assay, Staphylococcus aureus X400; format: cell-based
[4] = tested on: Staphylococcus aureus S13E; assay: MIC, standard agar-dilution assay, Staphylococcus aureus S13E; format: cell-based
[5] = tested on: Staphylococcus epidermidis EPI1; assay: MIC, standard agar-dilution assay, Staphylococcus epidermidis EPI1; format: cell-based
[6] = tested on: Staphylococcus epidermidis EPI2; assay: MIC, standard agar-dilution assay, Staphylococcus epidermidis EPI2; format: cell-based
[7] = tested on: Streptococcus pyogenes C203; assay: MIC, standard agar-dilution assay, Streptococcus pyogenes C203; format: cell-based
[8] = tested on: Streptococcus pneumoniae Park I; assay: microbe, parasite or virus in culture; format: cell-based; conditions: Streptococcus pneumoniae Park I, agar dilution
[9] = tested on: Streptococcus Group D X66; assay: MIC, standard agar-dilution assay, Streptococcus Group D X66; format: cell-based; conditions: Streptococcus Group D X66, agar dilution
[10] = tested on: Streptococcus Group 9960; assay: MIC, standard agar-dilution assay, Streptococcus Group 9960; format: cell-based
[11] = tested on: Haemophilus influenzae Holt; assay: MIC, standard agar-dilution assay, Haemophilus influenzae Holt; format: cell-based; conditions: Haemophilus influenzae Holt, ampicillin-sensitive strain
[12] = tested on: Haemophilus influenzae R252; assay: MIC, standard agar-dilution assay, Haemophilus influenzae R252; format: cell-based; conditions: Haemophilus influenzae R252, ampicillin-resistant strain
[13] = tested on: Staphylococcus aureus; assay: MIC, broth-dilution microtiter test, Staphylococcus aureus; format: cell-based
From the text: (§1) The MIC's in Table X were obtained using conventional broth-dilution microtiter tests.

[14] = tested on: Streptococcus bovis 80; assay: MIC, broth-dilution microtiter test, Streptococcus bovis 80; format: cell-based
From the text: as §1

[15] = tested on: Pasteurella multocida 17E; assay: MIC, broth-dilution microtiter test, Pasteurella multocida 17E; format: cell-based; conditions: Pasteurella multocida 17E, bovine isolate, broth-dilution microtiter
From the text: as §1

[16] = tested on: Pasteurella multocida 60A; assay: MIC, broth-dilution microtiter test, Pasteurella multocida 60A; format: cell-based; conditions: Pasteurella multocida 60A, avian isolate, broth-dilution microtiter
From the text: as §1

[17] = tested on: Pasteurella hemolytica 22C; assay: MIC, broth-dilution microtiter test, Pasteurella hemolytica 22C; format: cell-based; conditions: Pasteurella hemolytica 22C, broth-dilution microtiter
From the text: as §1

[18] = tested on: Mycoplasma gallisepticum; assay: MIC, broth-dilution microtiter test, Mycoplasma gallisepticum; format: cell-based
From the text: as §1

[19] = tested on: Mycoplasma hyorhinis; assay: MIC, broth-dilution microtiter test, Mycoplasma hyorhinis; format: cell-based
From the text: as §1

[20] = tested on: Streptococcus pyogenes C203; assay: In vivo protection of mice experimentally infected with S. pyogenes C203; conditions: for ED50: Streptococcus pyogenes
Experimental: The C-20 modified derivatives of this invention have shown in vivo antimicrobial activity against experimentally-induced infections in laboratory animals. When two doses of test compound were administered to mice experimentally infected with S. pyogenes C203, the activity observed was measured as an ED50 value [effective dose in mg/kg to protect 50% of the test animals: see Warren Wick, et al., J. Bacteriol. 81, 233-235 (1961)].

[21] = tested on: Pasteurella multocida; assay: Subcutaneous treatment of Pasteurella multocida-infected chicks; format: in vivo, one-day-old chicks; conditions: 30 mg/kg × 2, 1 and 4 hours post-challenge
Experimental: (§2) Many of the C-20 modified derivatives of this invention have also shown in vivo antibacterial activity against infections induced by gram-negative bacteria. Tables XII and XIII summarize the results of tests in which illustrative compounds were evaluated against Pasteurella infection in one-day-old chicks. The compounds were administered parenterally or orally after challenge of the chicks with Pasteurella multocida (0.1 ml of a 10^-4 dilution of a twenty-hour tryptose broth culture of an avian P. multocida given subcutaneously). In these tests, unless indicated otherwise, all non-medicated infected chicks died within 24 hours of Pasteurella challenge. In the tests summarized in Table XII the compounds were administered by subcutaneous injection at a dosage of 30 mg/kg, 1 and 4 hours post-challenge of the chicks with P. multocida. In the test summarized in Table XIII the compounds were administered by gavage at 1 and 5 hours post-challenge of the chicks with P. multocida.

[22] = tested on: Mycoplasma synoviae; assay: MIC, broth-dilution microtiter test, Mycoplasma synoviae; format: cell-based
From the text: as §1

[23] = tested on: Mycoplasma hyopneumoniae; assay: MIC, broth-dilution microtiter test, Mycoplasma hyopneumoniae; format: cell-based
From the text: as §1

[24] = tested on: Pasteurella multocida; assay: Oral (gavage) treatment of Pasteurella multocida-infected chicks; format: in vivo, one-day-old chicks; conditions: 1.5 g/gal equivalent
Experimental: as §2

[25] = Staphylococcus epidermidis, EPI2
[26] = C203, sc, mice, subcutaneous, doses given 1 and 4 hours post-infection, read-out: ED50, Subcutaneous

**Q.** `CCC1OC(=O)CC(O)C(C)C(OC2OC(C)C(O)C(N(C)C)C2O)C(CCOC(=O)c2nn(CC)c3cc4c(cc3c2=O)OCO4)CC(C)C(=O)C=CC(C)=CC1COC1OC(C)C(O)C(OC)C1OC` (centres unmarked) [Compound 27, 20-DH-20-O-Cinoxacinyldesmycosin] was tested. Which MIC ([1]; Staphylococcus aureus X1.1, agar dilution, read-out: MIC) did it give?
**A.** 2 µg/mL (≈ 1.96 µM)

**Q.** What about the MIC ([2]; Staphylococcus aureus, V41) of the same compound?
**A.** 4 µg/mL (≈ 3.93 µM)

**Q.** What about the MIC ([3]; Staphylococcus aureus, X400) of the same compound?
**A.** 8 µg/mL (≈ 7.86 µM)

**Q.** And the MIC ([4]; Staphylococcus aureus, S13E)?
**A.** 4 µg/mL (≈ 3.93 µM)

**Q.** And the MIC ([5]; Staphylococcus epidermidis EPI1, agar dilution, read-out: MIC)?
**A.** 1 µg/mL (≈ 0.982 µM)

**Q.** What about the MIC [6, 25] of the same compound?
**A.** 4 µg/mL (≈ 3.93 µM)

**Q.** What about the MIC ([7]; Streptococcus pyogenes C203, agar dilution, read-out: MIC) of the same compound?
**A.** 0.12 µg/mL (≈ 0.118 µM)

**Q.** What about the MIC ([8]; read-out: MIC) of the same compound?
**A.** 0.12 µg/mL (≈ 0.118 µM)

**Q.** What about the MIC ([9]; read-out: MIC) of the same compound?
**A.** 4 µg/mL (≈ 3.93 µM)

**Q.** And the MIC ([10]; GROUP9960)?
**A.** 8 µg/mL (≈ 7.86 µM)

**Q.** And the MIC ([11]; read-out: MIC)?
**A.** 32 µg/mL (≈ 31.4 µM)

**Q.** What about the MIC ([12]; read-out: MIC) of the same compound?
**A.** 32 µg/mL (≈ 31.4 µM)

**Q.** And the MIC ([13]; broth-dilution microtiter, read-out: MIC)?
**A.** 3.12 µg/mL (≈ 3.06 µM)

**Q.** What about the MIC ([14]; Streptococcus equinus, Streptococcus bovis 80, broth-dilution microtiter, read-out: MIC) of the same compound?
**A.** 0.78 µg/mL (≈ 0.766 µM)

**Q.** What about the MIC ([15]; read-out: MIC) of the same compound?
**A.** 25 µg/mL (≈ 24.6 µM)

**Q.** And the MIC ([16]; read-out: MIC)?
**A.** 25 µg/mL (≈ 24.6 µM)

**Q.** And the MIC ([17]; read-out: MIC)?
**A.** 50 µg/mL (≈ 49.1 µM)

**Q.** What about the MIC ([18]; Mycoplasmoides gallisepticum) of the same compound?
**A.** 1.56 µg/mL (≈ 1.53 µM)

**Q.** What about the MIC ([19]; Mycoplasma hyorhinis, broth-dilution microtiter, read-out: MIC) of the same compound?
**A.** 6.25 µg/mL (≈ 6.14 µM)

**Q.** What about the ED50 ([20]; C203, po, read-out: ED50, Oral) of the same compound?
**A.** > 100 mg/kg

**Q.** What about the ED50 [20, 26] of the same compound?
**A.** < 1.5 mg/kg

**Q.** And the “Number of Deaths/Number Treated” value [21]?
**A.** 6/10

**Q.** With `CCC1OC(=O)CC(O)C(C)C(OC2OC(C)C(O)C(N(C)C)C2O)C(CCOC)CC(C)C(=O)C=CC(C)=CC1COC1OC(C)C(O)C(OC)C1OC` (centres unmarked) [Compound 30, 20-DH-20-O-Methyldesmycosin] as the compound, how does the MIC ([1]; Staphylococcus aureus, X1.1) read?
**A.** 0.5 µg/mL (≈ 0.635 µM)

**Q.** And the MIC ([2]; Staphylococcus aureus, V41)?
**A.** 0.5 µg/mL (≈ 0.635 µM)

**Q.** And the MIC ([3]; Staphylococcus aureus X400, methicillin-resistant strain, agar dilution, read-out: MIC)?
**A.** 1 µg/mL (≈ 1.27 µM)

**Q.** And the MIC ([4]; Staphylococcus aureus, S13E)?
**A.** 0.5 µg/mL (≈ 0.635 µM)

**Q.** And the MIC ([5]; Staphylococcus epidermidis, EPI1)?
**A.** 0.5 µg/mL (≈ 0.635 µM)

**Q.** What about the MIC [6, 25] of the same compound?
**A.** 0.5 µg/mL (≈ 0.635 µM)

**Q.** What about the MIC ([7]; Streptococcus pyogenes, C203) of the same compound?
**A.** 0.5 µg/mL (≈ 0.635 µM)

**Q.** And the MIC ([8]; read-out: MIC)?
**A.** 4 µg/mL (≈ 5.08 µM)

**Q.** What about the MIC ([9]; read-out: MIC) of the same compound?
**A.** 16 µg/mL (≈ 20.3 µM)

**Q.** And the MIC ([10]; GROUP9960, Streptococcus Group 9960, agar dilution, read-out: MIC)?
**A.** 16 µg/mL (≈ 20.3 µM)

**Q.** And the MIC [13]?
**A.** 0.78 µg/mL (≈ 0.99 µM)

**Q.** What about the MIC ([14]; Streptococcus equinus, 80) of the same compound?
**A.** 12.5 µg/mL (≈ 15.9 µM)

**Q.** And the MIC ([15]; read-out: MIC)?
**A.** 25 µg/mL (≈ 31.7 µM)

**Q.** What about the MIC ([16]; read-out: MIC) of the same compound?
**A.** 25 µg/mL (≈ 31.7 µM)

**Q.** And the MIC ([17]; read-out: MIC)?
**A.** 25 µg/mL (≈ 31.7 µM)

**Q.** What about the MIC ([18]; Mycoplasmoides gallisepticum) of the same compound?
**A.** 0.39 µg/mL (≈ 0.495 µM)

**Q.** And the MIC ([22]; Mycoplasmopsis synoviae)?
**A.** 0.39 µg/mL (≈ 0.495 µM)

**Q.** And the MIC ([19]; Mycoplasma)?
**A.** 50 µg/mL (≈ 63.5 µM)

**Q.** And the MIC ([23]; Mesomycoplasma hyopneumoniae)?
**A.** 12.5 µg/mL (≈ 15.9 µM)

**Q.** And the ED50 [20, 26]?
**A.** > 6.3 mg/kg

**Q.** And the ED50 ([20]; C203, mice, oral, doses given 1 and 4 hours post-infection, read-out: ED50, Oral)?
**A.** 25 mg/kg

**Q.** What about the “Number of Deaths/Number Treated” value [21] of the same compound?
**A.** 10/10

**Q.** Which results are given for `CCC1OC(=O)CC(O)C(C)C(OC2OC(C)C(O)C(N(C)C)C2O)C(CCOc2cc(Cl)cc(Cl)c2)CC(C)C(=O)C=CC(C)=CC1COC1OC(C)C(O)C(OC)C1OC` (centres unmarked) [Compound 40, 20-DH-20-O-(3,5-Dichlorophenyl)desmycosin]?
**A.** MIC ([1]; Staphylococcus aureus X1.1, agar dilution): 0.25 µg/mL (≈ 0.272 µM); MIC ([2]; Staphylococcus aureus V41, penicillin-resistant strain, agar dilution): 0.25 µg/mL (≈ 0.272 µM); MIC ([3]; Staphylococcus aureus X400, methicillin-resistant strain, agar dilution): 0.25 µg/mL (≈ 0.272 µM); MIC ([4]; Staphylococcus aureus S13E, agar dilution): 0.25 µg/mL (≈ 0.272 µM); MIC ([5]; Staphylococcus epidermidis EPI1, agar dilution): 0.25 µg/mL (≈ 0.272 µM); MIC ([6]; Staphylococcus epidermidis EPI2, agar dilution): 0.12 µg/mL (≈ 0.131 µM); MIC ([7]; Streptococcus pyogenes C203, agar dilution): 0.12 µg/mL (≈ 0.131 µM); MIC [8]: 1 µg/mL (≈ 1.09 µM); MIC [9]: 4 µg/mL (≈ 4.35 µM); MIC ([10]; Streptococcus Group 9960, agar dilution): 8 µg/mL (≈ 8.71 µM); MIC ([11]; agar dilution): 32 µg/mL (≈ 34.8 µM); MIC ([12]; agar dilution): 16 µg/mL (≈ 17.4 µM); MIC ([13]; broth-dilution microtiter): 0.39 µg/mL (≈ 0.424 µM); MIC ([14]; Streptococcus bovis 80, broth-dilution microtiter): 3.12 µg/mL (≈ 3.4 µM); MIC [15]: 12.5 µg/mL (≈ 13.6 µM); MIC [16]: 12.5 µg/mL (≈ 13.6 µM); MIC [17]: 12.5 µg/mL (≈ 13.6 µM); MIC ([18]; Mycoplasma gallisepticum, broth-dilution microtiter): < 0.05 µg/mL; MIC ([22]; Mycoplasma synoviae, broth-dilution microtiter): 0.19 µg/mL (≈ 0.207 µM); MIC ([19]; Mycoplasma hyorhinis, broth-dilution microtiter): 12.5 µg/mL (≈ 13.6 µM); MIC ([23]; Mycoplasma hyopneumoniae, broth-dilution microtiter): 12.5 µg/mL (≈ 13.6 µM); ED50, Oral ([20]; mice, oral, doses given 1 and 4 hours post-infection): 31 mg/kg × 2; ED50, Subcutaneous ([20]; mice, subcutaneous, doses given 1 and 4 hours post-infection): > 10 mg/kg × 2; Number of Deaths/Number tested [24]: 10/10
